Results from ChEMBL document CHEMBL4507259 (2021).

Columns and labels:
[1] = target: Mitogen-activated protein kinase kinase kinase 6 (Homo sapiens) (UniProt O95382); conditions: Compound concentration 1000.0 nM
[2] = test system: Epidermal growth factor receptor (Homo sapiens), P00533 [G719C]; conditions: Compound concentration 1000.0 nM
[3] = target: Cyclin-dependent kinase 13 (Homo sapiens) (UniProt Q14004); conditions: Compound concentration 1000.0 nM
[4] = target: Serine/threonine-protein kinase 10 (Homo sapiens) (UniProt O94804); conditions: Compound concentration 1000.0 nM
[5] = target: RAF proto-oncogene serine/threonine-protein kinase (Homo sapiens) (UniProt P04049); conditions: Compound concentration 1000.0 nM
[6] = target: Myotonin-protein kinase (Homo sapiens) (UniProt Q09013); conditions: Compound concentration 1000.0 nM
[7] = target: Mitogen-activated protein kinase kinase kinase 11 (Homo sapiens) (UniProt Q16584); conditions: Compound concentration 1000.0 nM
Mitogen-activated protein kinase kinase kinase 11 (Homo sapiens), sequence (Q16584 whole entry, looked up): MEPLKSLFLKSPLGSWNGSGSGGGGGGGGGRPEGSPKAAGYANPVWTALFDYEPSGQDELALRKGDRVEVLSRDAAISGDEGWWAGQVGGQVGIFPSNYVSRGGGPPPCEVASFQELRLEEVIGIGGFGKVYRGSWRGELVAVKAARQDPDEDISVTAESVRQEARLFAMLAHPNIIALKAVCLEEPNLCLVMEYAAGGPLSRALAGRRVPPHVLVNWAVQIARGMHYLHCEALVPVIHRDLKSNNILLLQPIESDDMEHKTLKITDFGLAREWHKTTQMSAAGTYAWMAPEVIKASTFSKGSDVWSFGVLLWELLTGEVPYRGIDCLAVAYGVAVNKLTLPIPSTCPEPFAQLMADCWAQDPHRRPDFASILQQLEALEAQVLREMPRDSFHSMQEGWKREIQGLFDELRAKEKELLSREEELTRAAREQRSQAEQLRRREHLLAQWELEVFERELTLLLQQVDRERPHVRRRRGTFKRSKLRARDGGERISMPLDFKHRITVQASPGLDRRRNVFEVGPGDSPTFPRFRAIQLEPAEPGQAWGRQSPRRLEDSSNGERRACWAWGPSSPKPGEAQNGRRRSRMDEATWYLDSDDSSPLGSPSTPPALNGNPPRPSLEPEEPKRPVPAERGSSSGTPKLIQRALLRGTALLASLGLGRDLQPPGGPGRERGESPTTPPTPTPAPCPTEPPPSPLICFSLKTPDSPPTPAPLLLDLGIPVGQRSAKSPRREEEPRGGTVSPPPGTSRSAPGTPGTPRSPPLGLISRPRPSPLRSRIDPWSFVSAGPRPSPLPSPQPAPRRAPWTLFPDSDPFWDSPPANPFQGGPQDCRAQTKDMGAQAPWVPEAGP

[8] = test system: Tyrosine-protein kinase ABL1 (Homo sapiens), P00519 [E255K]; conditions: Compound concentration 1000.0 nM
[9] = target: Sigma intracellular receptor 2 (Homo sapiens, UniProt Q5BJF2); conditions: Compound concentration 10.0 uM
Sigma intracellular receptor 2, sequence (Q5BJF2 whole entry): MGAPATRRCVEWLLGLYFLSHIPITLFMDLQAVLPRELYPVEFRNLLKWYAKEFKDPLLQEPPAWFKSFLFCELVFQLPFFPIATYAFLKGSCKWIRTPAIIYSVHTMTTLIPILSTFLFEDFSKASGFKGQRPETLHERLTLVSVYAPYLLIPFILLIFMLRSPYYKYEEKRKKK

[10] = target: Peroxisome proliferator-activated receptor gamma (Homo sapiens) (UniProt P37231); assay: PPARgamma (h) CEREP ligand profiling; conditions: filed as agonist, Compound concentration 10.0 uM
[11] = target: Phosphatidylinositol 3-kinase catalytic subunit type 3 (Homo sapiens) (UniProt Q8NEB9); conditions: Compound concentration 1000.0 nM
[12] = target: Cytoplasmic tyrosine-protein kinase BMX (Homo sapiens) (UniProt P51813); conditions: Compound concentration 1000.0 nM
[13] = target: Acetylcholinesterase (Homo sapiens) (UniProt P22303); assay: acetylcholinesterase (h) CEREP ligand profiling; conditions: Compound concentration 10.0 uM
[14] = target: Myosin-IIIb (Homo sapiens) (UniProt Q8WXR4); conditions: Compound concentration 1000.0 nM
[15] = test system: Phosphatidylinositol 4,5-bisphosphate 3-kinase catalytic subunit alpha isoform (Homo sapiens), P42336 [H1047Y]; conditions: Compound concentration 1000.0 nM
[16] = target: Ribosomal protein S6 kinase alpha-6 (Homo sapiens) (UniProt Q9UK32); conditions: Compound concentration 1000.0 nM
[17] = target: Tyrosine-protein kinase HCK (Homo sapiens) (UniProt P08631); conditions: Compound concentration 1000.0 nM
[18] = test system: Phosphatidylinositol 4,5-bisphosphate 3-kinase catalytic subunit alpha isoform (Homo sapiens), P42336 [I800L]; conditions: Compound concentration 1000.0 nM
[19] = target: Serine/threonine-protein kinase WNK4 (Homo sapiens) (UniProt Q96J92); conditions: Compound concentration 1000.0 nM
[20] = test system: Proto-oncogene tyrosine-protein kinase receptor Ret (Homo sapiens), P07949 [V804L]; conditions: Compound concentration 1000.0 nM
[21] = target: Ephrin type-B receptor 1 (Homo sapiens) (UniProt P54762); conditions: Compound concentration 1000.0 nM
Ephrin type-B receptor 1 (Homo sapiens), sequence (P54762 whole entry): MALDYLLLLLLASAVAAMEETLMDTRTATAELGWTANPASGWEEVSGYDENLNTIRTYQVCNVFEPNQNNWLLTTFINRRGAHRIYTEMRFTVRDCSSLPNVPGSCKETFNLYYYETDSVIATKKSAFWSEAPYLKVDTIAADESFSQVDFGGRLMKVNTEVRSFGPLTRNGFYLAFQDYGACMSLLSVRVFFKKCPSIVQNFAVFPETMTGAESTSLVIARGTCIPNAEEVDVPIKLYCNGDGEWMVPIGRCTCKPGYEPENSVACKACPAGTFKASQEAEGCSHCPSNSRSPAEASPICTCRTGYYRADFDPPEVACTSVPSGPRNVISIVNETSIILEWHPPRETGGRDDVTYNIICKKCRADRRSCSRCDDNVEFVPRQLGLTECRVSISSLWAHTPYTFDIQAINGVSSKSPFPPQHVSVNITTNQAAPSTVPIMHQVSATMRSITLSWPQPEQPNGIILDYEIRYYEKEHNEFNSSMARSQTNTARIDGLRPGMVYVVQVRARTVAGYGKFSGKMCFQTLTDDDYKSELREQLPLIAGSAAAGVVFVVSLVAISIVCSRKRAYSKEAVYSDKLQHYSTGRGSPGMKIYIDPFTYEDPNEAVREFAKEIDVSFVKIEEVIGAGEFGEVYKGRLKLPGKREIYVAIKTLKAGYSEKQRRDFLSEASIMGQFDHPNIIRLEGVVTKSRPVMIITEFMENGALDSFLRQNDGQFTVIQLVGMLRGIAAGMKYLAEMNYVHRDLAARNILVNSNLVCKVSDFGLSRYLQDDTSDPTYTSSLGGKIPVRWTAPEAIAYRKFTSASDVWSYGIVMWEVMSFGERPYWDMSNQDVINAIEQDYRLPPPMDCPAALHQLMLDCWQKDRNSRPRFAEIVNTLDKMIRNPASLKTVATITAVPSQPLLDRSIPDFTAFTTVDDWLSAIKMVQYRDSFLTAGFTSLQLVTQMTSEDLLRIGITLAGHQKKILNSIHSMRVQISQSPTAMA

[22] = target: Tyrosine-protein kinase Blk (Homo sapiens) (UniProt P51451); conditions: Compound concentration 1000.0 nM
[23] = target: Macrophage-stimulating protein receptor (Homo sapiens) (UniProt Q04912); conditions: Compound concentration 1000.0 nM
[24] = target: Tyrosine-protein kinase receptor UFO (Homo sapiens) (UniProt P30530); conditions: Compound concentration 1000.0 nM
[25] = target: Rhodopsin kinase GRK1 (Homo sapiens) (UniProt Q15835); conditions: Compound concentration 1000.0 nM
[26] = target: Serine/threonine-protein kinase D1 (Homo sapiens) (UniProt Q15139); conditions: Compound concentration 1000.0 nM
[27] = target: Histamine H4 receptor (Homo sapiens) (UniProt Q9H3N8); conditions: Compound concentration 10.0 uM
Histamine H4 receptor (Homo sapiens), sequence (Q9H3N8 whole entry): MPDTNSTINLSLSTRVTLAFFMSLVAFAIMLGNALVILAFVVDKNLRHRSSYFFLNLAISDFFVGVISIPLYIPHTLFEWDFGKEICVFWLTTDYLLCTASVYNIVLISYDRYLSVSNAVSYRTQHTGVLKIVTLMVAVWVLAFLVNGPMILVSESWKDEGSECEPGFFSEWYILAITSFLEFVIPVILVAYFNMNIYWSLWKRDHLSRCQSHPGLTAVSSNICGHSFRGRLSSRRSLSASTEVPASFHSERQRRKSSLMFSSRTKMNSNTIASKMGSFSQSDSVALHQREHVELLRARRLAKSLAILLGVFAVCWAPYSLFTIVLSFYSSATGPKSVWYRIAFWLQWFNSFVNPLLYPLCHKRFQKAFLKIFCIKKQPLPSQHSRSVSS

[28] = target: Non-receptor tyrosine-protein kinase TYK2 (Homo sapiens) (UniProt P29597); conditions: Compound concentration 1000.0 nM
[29] = target: Alpha-2C adrenergic receptor (Homo sapiens) (UniProt P18825); conditions: Compound concentration 10.0 uM
[30] = target: Estrogen receptor (Homo sapiens) (UniProt P03372); assay: Estrogen ER alpha (h) CEREP ligand profiling; conditions: filed as agonist, Compound concentration 10.0 uM
[31] = target: Ephrin type-A receptor 6 (Homo sapiens) (UniProt Q9UF33); conditions: Compound concentration 1000.0 nM
Ephrin type-A receptor 6 (Homo sapiens), sequence (Q9UF33 whole entry): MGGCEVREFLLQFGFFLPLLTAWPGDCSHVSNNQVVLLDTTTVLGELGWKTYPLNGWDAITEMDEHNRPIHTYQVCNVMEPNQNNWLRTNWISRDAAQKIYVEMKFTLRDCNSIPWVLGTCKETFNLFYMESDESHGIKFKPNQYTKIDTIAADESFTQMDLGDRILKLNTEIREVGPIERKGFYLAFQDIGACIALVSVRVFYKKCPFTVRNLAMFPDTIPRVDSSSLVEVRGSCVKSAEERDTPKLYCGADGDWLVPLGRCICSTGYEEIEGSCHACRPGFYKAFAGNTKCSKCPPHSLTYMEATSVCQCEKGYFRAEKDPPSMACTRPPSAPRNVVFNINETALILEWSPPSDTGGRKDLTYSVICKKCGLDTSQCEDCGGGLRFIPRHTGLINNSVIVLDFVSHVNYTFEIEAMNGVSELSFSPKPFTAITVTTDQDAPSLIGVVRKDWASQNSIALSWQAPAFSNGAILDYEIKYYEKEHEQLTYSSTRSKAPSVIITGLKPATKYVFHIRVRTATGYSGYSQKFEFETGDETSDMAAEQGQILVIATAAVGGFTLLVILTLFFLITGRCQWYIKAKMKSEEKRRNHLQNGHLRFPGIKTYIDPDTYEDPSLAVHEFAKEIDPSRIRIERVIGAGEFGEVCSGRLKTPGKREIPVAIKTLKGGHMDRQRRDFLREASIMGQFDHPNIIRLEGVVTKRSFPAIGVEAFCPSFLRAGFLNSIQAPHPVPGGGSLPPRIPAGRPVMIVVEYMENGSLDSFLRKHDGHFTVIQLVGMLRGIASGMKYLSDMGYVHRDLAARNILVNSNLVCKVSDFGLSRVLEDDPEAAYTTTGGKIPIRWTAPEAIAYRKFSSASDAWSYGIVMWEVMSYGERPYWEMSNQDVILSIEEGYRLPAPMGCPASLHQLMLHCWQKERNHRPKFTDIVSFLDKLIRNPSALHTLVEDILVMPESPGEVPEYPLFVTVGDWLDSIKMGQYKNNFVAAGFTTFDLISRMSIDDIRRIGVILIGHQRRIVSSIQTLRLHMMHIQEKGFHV

[32] = target: Vascular endothelial growth factor receptor 1 (Homo sapiens) (UniProt P17948); conditions: Compound concentration 1000.0 nM
[33] = target: AP2-associated protein kinase 1 (Homo sapiens) (UniProt Q2M2I8); conditions: Compound concentration 1000.0 nM
[34] = target: Androgen receptor (Homo sapiens) (UniProt P10275); assay: AR (h) CEREP ligand profiling; conditions: filed as agonist, Compound concentration 10.0 uM
[35] = target: SRSF protein kinase 2 (Homo sapiens) (UniProt P78362); conditions: Compound concentration 1000.0 nM
[36] = target: Serine/threonine-protein kinase RIO3 (Homo sapiens) (UniProt O14730); conditions: Compound concentration 1000.0 nM
[37] = target: Tyrosine-protein kinase ABL1 (Homo sapiens) (UniProt P00519); conditions: Compound concentration 1000.0 nM
[38] = target: Dual specificity mitogen-activated protein kinase kinase 7 (Homo sapiens) (UniProt O14733); conditions: Compound concentration 1000.0 nM
[39] = target: Eukaryotic translation initiation factor 2-alpha kinase 1 (Homo sapiens) (UniProt Q9BQI3); conditions: Compound concentration 1000.0 nM
[40] = target: Phosphatidylinositol 4,5-bisphosphate 3-kinase catalytic subunit gamma isoform (Homo sapiens) (UniProt P48736); conditions: Compound concentration 1000.0 nM
[41] = target: Tyrosine-protein kinase receptor Tie-1 (Homo sapiens) (UniProt P35590); conditions: Compound concentration 1000.0 nM
[42] = target: Mitogen-activated protein kinase kinase kinase kinase 4 (Homo sapiens) (UniProt O95819); conditions: Compound concentration 1000.0 nM

Cyclin-dependent kinase 13 (Homo sapiens), sequence (Q14004 whole entry, looked up): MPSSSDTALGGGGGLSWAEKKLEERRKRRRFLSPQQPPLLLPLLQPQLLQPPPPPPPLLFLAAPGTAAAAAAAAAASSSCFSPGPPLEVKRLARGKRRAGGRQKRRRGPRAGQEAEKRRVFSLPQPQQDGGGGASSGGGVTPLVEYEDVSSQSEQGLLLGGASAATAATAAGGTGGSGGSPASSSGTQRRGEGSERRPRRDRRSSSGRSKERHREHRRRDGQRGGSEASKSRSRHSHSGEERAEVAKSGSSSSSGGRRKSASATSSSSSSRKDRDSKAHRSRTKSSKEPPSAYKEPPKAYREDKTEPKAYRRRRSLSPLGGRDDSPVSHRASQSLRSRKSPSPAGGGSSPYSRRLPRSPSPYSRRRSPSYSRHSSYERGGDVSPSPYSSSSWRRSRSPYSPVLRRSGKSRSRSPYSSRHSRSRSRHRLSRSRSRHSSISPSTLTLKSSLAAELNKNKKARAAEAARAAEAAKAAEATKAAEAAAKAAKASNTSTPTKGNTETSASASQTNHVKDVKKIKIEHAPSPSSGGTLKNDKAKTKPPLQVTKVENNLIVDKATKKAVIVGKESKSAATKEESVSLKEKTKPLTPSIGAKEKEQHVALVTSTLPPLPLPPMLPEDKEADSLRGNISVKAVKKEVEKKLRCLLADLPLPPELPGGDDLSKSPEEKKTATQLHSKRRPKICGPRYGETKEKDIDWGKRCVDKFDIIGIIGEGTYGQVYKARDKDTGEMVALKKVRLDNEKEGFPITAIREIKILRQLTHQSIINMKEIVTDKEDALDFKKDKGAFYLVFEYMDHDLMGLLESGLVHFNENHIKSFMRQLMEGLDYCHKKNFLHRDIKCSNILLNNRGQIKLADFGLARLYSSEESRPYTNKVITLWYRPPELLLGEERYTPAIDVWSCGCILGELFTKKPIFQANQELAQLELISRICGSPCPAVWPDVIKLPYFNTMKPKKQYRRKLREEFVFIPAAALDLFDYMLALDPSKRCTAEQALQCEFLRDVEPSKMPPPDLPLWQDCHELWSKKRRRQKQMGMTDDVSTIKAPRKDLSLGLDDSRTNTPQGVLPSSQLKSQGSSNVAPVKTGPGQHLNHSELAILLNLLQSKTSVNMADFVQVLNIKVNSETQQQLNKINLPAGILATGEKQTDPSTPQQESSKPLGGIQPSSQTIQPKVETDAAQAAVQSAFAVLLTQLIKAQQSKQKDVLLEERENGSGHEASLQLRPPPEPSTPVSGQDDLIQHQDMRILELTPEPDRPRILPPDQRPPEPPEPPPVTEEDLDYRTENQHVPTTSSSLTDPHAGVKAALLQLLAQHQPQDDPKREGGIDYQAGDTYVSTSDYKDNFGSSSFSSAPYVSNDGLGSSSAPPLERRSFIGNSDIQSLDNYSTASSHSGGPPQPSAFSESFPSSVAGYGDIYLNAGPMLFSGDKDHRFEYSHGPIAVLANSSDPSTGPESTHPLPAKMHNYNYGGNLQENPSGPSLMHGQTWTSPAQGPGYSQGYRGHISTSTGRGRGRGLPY

CNC(=O)Nc1ccc2c(c1)CC[C@@]21OC(=O)N(CC(=O)N(Cc2ccc(F)cc2)[C@@H](C)C(F)(F)F)C1=O [A-485]
residual activity [1]: 86%
residual activity [2]: 97%
residual activity [3]: 96%
residual activity [4]: 100%
residual activity [5]: 100%
residual activity [6]: 100%
residual activity [7]: 73%
residual activity [8]: 75%
inhibition [9]: 50%
inhibition [10]: 10%
residual activity [11]: 88%
residual activity [12]: 72%
inhibition [13]: -1%
residual activity [14]: 88%
residual activity [15]: 91%
residual activity [16]: 84%
residual activity [17]: 99%
residual activity [18]: 83%
residual activity [19]: 73%
residual activity [20]: 91%
residual activity [21]: 97%
residual activity [22]: 100%
residual activity [23]: 77%
residual activity [24]: 90%
residual activity [25]: 82%
residual activity [26]: 99%
inhibition [27]: 10.1%
residual activity [28]: 86%
inhibition [29]: 20.7%
inhibition [30]: 5%
residual activity [31]: 79%
residual activity [32]: 100%
residual activity [33]: 100%
inhibition [34]: -4%
residual activity [35]: 100%
residual activity [36]: 89%
residual activity [37]: 84%
residual activity [38]: 97%
residual activity [39]: 80%
residual activity [40]: 95%
residual activity [41]: 89%
residual activity [42]: 87%

CNC(=O)Nc1ccc2c(c1)[C@@]1(CC2)OC(=O)N(CC(=O)N(Cc2ccc(F)cc2)[C@@H](C)C(F)(F)F)C1=O [A-486]
residual activity [1]: 82%
residual activity [2]: 100%
residual activity [3]: 92%
residual activity [4]: 92%
residual activity [5]: 100%
residual activity [6]: 92%
residual activity [7]: 91%
residual activity [8]: 100%
inhibition [9]: 55.5%
inhibition [10]: 1%
residual activity [11]: 96%
residual activity [12]: 99%
inhibition [13]: 8%
residual activity [14]: 100%
residual activity [15]: 100%
residual activity [16]: 100%
residual activity [17]: 100%
residual activity [18]: 63%
residual activity [19]: 100%
residual activity [20]: 94%
residual activity [21]: 100%
residual activity [22]: 100%
residual activity [23]: 100%
residual activity [24]: 67%
residual activity [25]: 73%
residual activity [26]: 100%
inhibition [27]: 5.16%
residual activity [28]: 68%
inhibition [29]: 8.88%
inhibition [30]: -10%
residual activity [31]: 91%
residual activity [32]: 100%
residual activity [33]: 100%
inhibition [34]: 4%
residual activity [35]: 100%
residual activity [36]: 100%
residual activity [37]: 93%
residual activity [38]: 85%
residual activity [39]: 96%
residual activity [40]: 64%
residual activity [41]: 100%
residual activity [42]: 100%
